One experiment concerns the target GSK3β (Homo sapiens, UniProt P49841). Kind of experiment: GSK3β kinase assay (Caliper LabChip, fluoresceinated peptide substrate). In kind it is biochemical. On the procedure:
(§1) The kinase assay was performed in V-bottom 384-well plates. […] The reaction was incubated at room temperature for 20 hours and terminated by adding 45 μl of 35 mM EDTA to each sample. The reaction mixture was analyzed on the Caliper LabChip3000 (Caliper, Hopkinton, Mass.) by electrophoretic separation of the unphosphorylated substrate and phosphorylated product. […] Compounds were dissolved at 10 mM in dimethylsulfoxide (DMSO) and evaluated at eleven concentrations. IC50 values were derived by non-linear regression analysis.

Another experiment deals with GSK3α (Homo sapiens, UniProt P49840). Kind of experiment: GSK3α kinase assay (Caliper LabChip, fluoresceinated peptide substrate). In kind it is biochemical. How it is done:
as §1

Another experiment has as its system pTau. Kind of experiment: pTau assay (no method described). In kind it is cell-based.
Where [1] appears, read: first value of the cell, 250 pM enzyme, 20 uM ATP, 20 hours at room temperature, read-out: GSK3β/α (nM): GSK3β IC50.

Molecules are shown by their SMILES. Like-named read-outs stand apart in the source and are kept apart here.

Sequence of GSK3α (P49840 whole entry, species assumed): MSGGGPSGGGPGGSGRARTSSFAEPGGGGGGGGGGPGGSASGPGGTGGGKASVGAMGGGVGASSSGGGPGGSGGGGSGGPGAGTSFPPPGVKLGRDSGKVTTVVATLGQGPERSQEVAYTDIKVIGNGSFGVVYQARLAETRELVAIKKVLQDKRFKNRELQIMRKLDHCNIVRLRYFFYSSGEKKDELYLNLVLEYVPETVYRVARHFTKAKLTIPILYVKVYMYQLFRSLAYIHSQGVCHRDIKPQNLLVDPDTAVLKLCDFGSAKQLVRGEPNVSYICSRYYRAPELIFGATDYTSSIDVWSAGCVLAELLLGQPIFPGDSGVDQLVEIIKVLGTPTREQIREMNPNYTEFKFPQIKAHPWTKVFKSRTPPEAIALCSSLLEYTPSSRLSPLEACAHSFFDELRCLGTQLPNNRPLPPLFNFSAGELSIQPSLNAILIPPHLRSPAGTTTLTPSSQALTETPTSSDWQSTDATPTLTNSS
Sequence of GSK3β (P49841 whole entry, species assumed): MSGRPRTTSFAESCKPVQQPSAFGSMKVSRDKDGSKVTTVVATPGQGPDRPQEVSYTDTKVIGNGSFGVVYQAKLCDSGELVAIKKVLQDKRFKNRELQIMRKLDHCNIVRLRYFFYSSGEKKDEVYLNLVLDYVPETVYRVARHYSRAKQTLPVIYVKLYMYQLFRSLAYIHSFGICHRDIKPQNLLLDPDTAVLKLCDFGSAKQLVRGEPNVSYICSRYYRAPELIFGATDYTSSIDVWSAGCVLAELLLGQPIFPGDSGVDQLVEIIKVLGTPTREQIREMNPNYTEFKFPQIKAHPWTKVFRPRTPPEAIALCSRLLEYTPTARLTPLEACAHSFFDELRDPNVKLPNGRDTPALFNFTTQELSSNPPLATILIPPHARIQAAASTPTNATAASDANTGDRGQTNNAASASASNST

For `CC(O)(c1cc(Cl)ncc1NC(=O)c1ccnc(Nc2ccc(C(F)(F)F)cn2)c1)C1CC1` (stereo not drawn) [Example 98, N-(6-Chloro-4-(1-cyclopropyl-1-hydroxyethyl)pyridin-3-yl)-2-((5-(trifluoromethyl)pyridin-2-yl)amino)isonicotinamide], the values for the IC50 on GSK3β (setting [1]), at GSK3α and with pTau were 3.7 nM, 4 nM and 230 nM, respectively.
Take `O=C(Nc1cnccc1C1CCOCC1)c1ccnc(Nc2ccc(C(F)(F)F)cn2)c1` [Example 35, N-(4-(Tetrahydro-2H-pyran-4-yl)pyridin-3-yl)-2-((5-(trifluoromethyl)pyridin-2-yl)amino)isonicotinamide]: the IC50 against GSK3β was 16 nM; on GSK3α (second value of the cell, 250 pM enzyme, 20 uM ATP, 20 hours at room temperature, read-out: GSK3β/α (nM): GSK3α IC50), 8.7 nM; in the experiment with pTau, 760 nM.
With `O=C(Nc1cnccc1-c1ccc(F)cc1F)c1ccnc(Nc2ccc(C(F)(F)F)cn2)c1` [Example 54, N-(4-(2,4-Difluoro-phenyl)pyridin-3-yl)-2-((5-(trifluoromethyl)pyridin-2-yl)amino)isonicotinamide], the IC50 amounted to 2.8 nM at GSK3β (setting [1]), 0.96 nM at GSK3α and 57 nM in the experiment on pTau.
For `Cn1ncc(NC(=O)c2ccnc(Nc3ccc(C(F)(F)F)cn3)c2)c1C1(C)OCCO1` [Example 207, N-(1-Methyl-5-(2-methyl-1,3-dioxolan-2-yl)-1H-pyrazol-4-yl)-2-((5-(trifluoromethyl)pyridin-2-yl)amino)isonicotinamide], in that order: 0.09 nM, 0.1 nM and 1.4 nM.
The matching figures for `O=C(Nc1cncc(-c2ccccc2F)c1)c1ccnc(Nc2ccc3cnccc3n2)c1` [Example 153, 2-((1,6-Naphthyridin-2-yl)amino)-N-(5-(2-fluorophenyl)pyridin-3-yl)isonicotinamide]: 1.5 nM, 0.45 nM and 200 nM.
Regarding `CCCC1(c2cc(Cl)ncc2NC(=O)c2ccnc(Nc3ccc(C(F)(F)F)cn3)c2)OCCO1` [Example 88, N-(6-Chloro-4-(2-propyl-1,3-dioxolan-2-yl)pyridin-3-yl)-2-((5-(trifluoromethyl)pyridin-2-yl)amino)isonicotinamide], the IC50 at GSK3β (setting [1]) came to 0.69 nM; against GSK3α, 0.23 nM; with pTau, 80 nM.
For `O=C(Nc1cncc(-c2ccccc2)c1)c1ccnc(Nc2cccc(C(F)(F)F)n2)c1` [Example 144, N-(5-Phenylpyridin-3-yl)-2-((6-(trifluoromethyl)pyridin-2-yl)amino)isonicotinamide], in that order: 10 nM, 39 nM and 910 nM.
For the molecule `O=C(Nc1cnccc1-c1ccccc1)c1ccnc(Nc2ccc3ccccc3n2)c1` [Example 116, N-(4-Phenylpyridin-3-yl)-2-(quinolin-2-ylamino)isonicotinamide], the values for the IC50 at GSK3β (setting [1]), against GSK3α and with pTau were 7.8 nM, 3.9 nM and 610 nM, respectively.
With `CN(C)S(=O)(=O)c1ccc(Nc2cc(C(=O)Nc3cncc(-c4ccccc4F)c3)ccn2)nc1` [Example 157, 2-((5-(N,N-Dimethylsulfamoyl)pyridin-2-yl)amino)-N-(5-(2-fluorophenyl)pyridin-3-yl)isonicotinamide], the figures for the IC50 on GSK3β (setting [1]), against GSK3α and in the experiment with pTau were 3.6 nM, 1.6 nM and 750 nM, respectively.
For `O=C(Nc1cnccc1-c1ccccc1)c1ccnc(Nc2cccc(F)n2)c1` [Example 7, 2-((6-Fluoropyridin-2-yl)amino)-N-(4-phenylpyridin-3-yl)isonicotinamide], in that order: 8.5 nM, 5.9 nM and 249 nM.
The matching figures for `CC(C)Sc1ccncc1NC(=O)c1ccnc(Nc2ccc(C(F)(F)F)cn2)c1` [Example 173, N-(4-(Isopropylthio)pyridin-3-yl)-2-((5-(trifluoromethyl)pyridin-2-yl)amino)isonicotinamide]: 0.52 nM, 0.19 nM and 48 nM.
For `Cn1ncc(NC(=O)c2ccnc(Nc3ccc(C(F)(F)F)cn3)c2)c1C(C)(O)C1CC1` (stereo not drawn) [Example 209, N-(5-(1-Cyclopropyl-1-hydroxyethyl)-1-methyl-1H-pyrazol-4-yl)-2-((5-(trifluoromethyl)pyridin-2-yl)amino)isonicotinamide], in that order: 0.3 nM, 0.21 nM and 21 nM.
For `CC[C@@]1(c2cc(Cl)ncc2NC(=O)c2ccnc(Nc3ccc(C(F)(F)F)cn3)c2)OC[C@@H](C)O1` [Example 90, N-(6-Chloro-4-((2R,4R)-2-ethyl-4-methyl-1,3-dioxolan-2-yl)pyridin-3-yl)-2-((5-(trifluoromethyl)pyridin-2-yl)amino)isonicotinamide], the IC50 at GSK3β (setting [1]) amounted to 2 nM; on GSK3α it was 0.94 nM; in the experiment with pTau, 150 nM.
The matching figures for `O=C(Nc1cnc(Cl)cc1N1CCC(F)(F)CC1)c1ccnc(Nc2ccc(C(F)(F)F)cn2)c1` [Example 70, N-(6-Chloro-4-(4,4-difluoropiperidin-1-yl)pyridin-3-yl)-2-((5-(trifluoromethyl)pyridin-2-yl)amino)isonicotinamide]: 7.6 nM, 2.6 nM and 564 nM.
The matching figures for `O=C(Nc1cnc2cccnn12)c1ccnc(Nc2ccc(C(F)(F)F)cn2)c1` [Example 210, N-(Imidazo[1,2-b]pyridazin-3-yl)-2-((5-(trifluoromethyl)pyridin-2-yl)amino)isonicotinamide]: 33 nM, 11 nM and 2300 nM.
For `O=C(Nc1cnccc1OCCN1CCOCC1)c1ccnc(Nc2ccc(C(F)(F)F)cn2)c1` [Example 47, N-(4-(2-Morpholinoethoxy)pyridin-3-yl)-2-((5-(trifluoromethyl)pyridin-2-yl)amino)isonicotinamide], in that order: 18 nM, 5.6 nM and 420 nM.
Consider `C[C@@H]1CO[C@](c2cc(Cl)ncc2NC(=O)c2ccnc(Nc3ccc(C(F)(F)F)cn3)c2)(C2CC2)O1` [Example 96, N-(6-Chloro-4-((2R,4R)-2-cyclopropyl-4-methyl-1,3-dioxolan-2-yl)pyridin-3-yl)-2-((5-(trifluoromethyl)pyridin-2-yl)amino)isonicotinamide], for which the IC50 stood at 0.29 nM on GSK3β (setting [1]), 0.16 nM at GSK3α and 39 nM in the experiment with pTau.
Take `N#Cc1cccc(Nc2cc(C(=O)Nc3cncc(-c4ccc(C#N)c(F)c4)c3)ccn2)n1` [Example 165, N-(5-(4-Cyano-3-fluorophenyl)pyridin-3-yl)-2-((6-cyanopyridin-2-yl)amino)isonicotinamide]: the IC50 is 1.2 nM at GSK3β (setting [1]), 0.4 nM on GSK3α and 84 nM in the experiment on pTau.
Consider `N#Cc1cccc(Nc2cc(C(=O)Nc3cncc(-c4cccc(F)c4C#N)c3)ccn2)n1` [Example 166, N-(5-(2-Cyano-3-fluorophenyl)pyridin-3-yl)-2-((6-cyanopyridin-2-yl)amino)isonicotinamide], for which the IC50 on GSK3β (setting [1]) stood at 0.91 nM; against GSK3α, 0.28 nM; in the experiment on pTau, 390 nM.
The matching figures for `O=C(Nc1cnccc1-c1ccccc1)c1ccnc(Nc2cc3ccccc3cn2)c1` [Example 115, 2-(Isoquinolin-3-ylamino)-N-(4-phenylpyridin-3-yl)isonicotinamide]: 0.97 nM, 0.65 nM and 297 nM.
Consider `O=C(Nc1cnncc1C1(CCCCl)OCCO1)c1ccnc(Nc2ccc(C(F)(F)F)cn2)c1` [Example 201, N-(5-(2-(3-Chloropropyl)-1,3-dioxolan-2-yl)pyridazin-4-yl)-2-((5-(trifluoromethyl)pyridin-2-yl)amino)isonicotinamide], for which the IC50 at GSK3β (setting [1]) came to 0.19 nM; on GSK3α it was 0.4 nM; with pTau it was 28 nM.
For `CC(C)(C)Sc1ccncc1NC(=O)c1ccnc(Nc2ccc(C(F)(F)F)cn2)c1` [Example 174, N-(4-(tert-Butylthio)pyridin-3-yl)-2-((5-(trifluoromethyl)pyridin-2-yl)amino)isonicotinamide], in that order: 0.14 nM, 0.08 nM and 27 nM.
The matching figures for `N#Cc1ccc(-c2ccncc2NC(=O)c2ccnc(Nc3ccc(C(F)(F)F)cn3)c2)c(F)c1` [Example 52, N-(4-(2-Fluoro-4-cyano-phenyl)pyridin-3-yl)-2-((5-(trifluoromethyl)pyridin-2-yl)amino)isonicotinamide]: 3.6 nM, 1.5 nM and 35 nM.
The matching figures for `O=C(Nc1cnccc1C1=CCCCO1)c1ccnc(Nc2ccc(C(F)(F)F)cn2)c1` [Example 39, N-(4-(3,4-Dihydro-2H-pyran-6-yl)pyridin-3-yl)-2-((5-(trifluoromethyl)pyridin-2-yl)amino)isonicotinamide]: 1.2 nM, 0.93 nM and 140 nM.
As for `N#Cc1ccc(Nc2cc(C(=O)Nc3cnccc3OCC(F)(F)F)ccn2)nc1` [Example 29, 2-((5-Cyanopyridin-2-yl)amino)-N-(4-(2,2,2-trifluoroethoxy)pyridin-3-yl)isonicotinamide], the IC50 was 0.69 nM on GSK3β (setting [1]), 0.62 nM against GSK3α and 16 nM in the experiment on pTau.
For `O=C(Nc1cnccc1OCC(F)F)c1ccnc(Nc2ccc(C(F)(F)F)cn2)c1` [Example 42, N-(4-(2,2-Difluoroethoxy)pyridin-3-yl)-2-((5-(trifluoromethyl)pyridin-2-yl)amino)isonicotinamide], in that order: 0.49 nM, 0.27 nM and 21 nM.

Source of the values: patent publication US9718804B2, “GSK-3 inhibitors” (BRISTOL-MYERS SQUIBB COMPANY, priority 2013, dated 2017).
